Reference: patent US20190086390A1, “INDIRECT ASSESSMENT OF INSULIN RELEASE IN A CELL” (Board of Supervisors of Louisiana State University and …, priority 2016, published 2019)

How the values were obtained:
Format in all cases: cell-based, rat
832/13 cells [1] = assay: Nitrite accumulation in culture media, Griess assay; settings: IL-1β
Experimental: Nitrite in the cell culture media was measured as an index of NO production using the Griess assay kit (Promega, Madison, Wis.), whereas cellular reduction of the 3-(4,5-dimethylthiazol-2-yl)-5-(3-carboxymethoxyphenyl)-2-(4-sulfophe-nyl)-2H-tetrazohum, inner salt (MTS) dye was determined using the MTS 1 solution kit (Promega) according to the manufacturer's protocol.

Pdx-1 = Pdx-1 protein abundance, immunoblot; settings: 832/13 cells, IL-1β 4 h
Experimental: (§1) Cell lysis and extraction of cytoplasmic and nuclear protein fractions was performed using the NE-PER kit (Thermo Fisher Scientific) according to the manufacturer's directions. The protein concentration of the lysate was determined using the bicinchoninic acid assay (Thermo Fisher Scientific), using BSA as the standard. SDS-PAGE, transfer to polyvi-nylidene difluoride membranes, membrane blocking before antibody incubation, and downstream subsequent detection using a ChemiDoc imaging system (Bio-Rad) have been described previously (16). Antibodies detecting β-actin or tubulin were used as loading controls. Antibodies used were from the following sources: iNOS (Santa Cruz Biotechnology), (3-actin (Cell Signaling Technology), Ikα: (Santa Cruz Biotechnology), tubulin (Cell Signaling Technology), and Pdx-1 (Cell Signaling Technology). The antibody recognizing Nkx6.1 has been described (34). Immunoblot images were quantified using Image Lab software (Bio-Rad).

832/13 cells [2] = assay: Live cell calcium imaging, glucose-induced calcium response (Calcium Green)
Experimental: 832/13 cells were plated into six-well plates containing poly-d-lysine-coated coverslips (Neuvitro, Vancouver, Wash.). At 50% confluence, cells were treated for 18 h with one of four experimental groups: 1 ng/ml […] alone, 1 mM I-NMMA alone, IL-1β+ I-NMMA, or normal growth media. Immediately prior to imaging, cells were preloaded with Calcium Green 1 AM (CG, C3012; Life Technologies) by transferring coverslips to a solution of 10|×M CG in 20% Pluronic F127 in DMSO (Life Technologies) made up in carbogenated (95% 02-5% C02) normal Krebs. The recipe for normal Krebs solution was (in mM) 124 NaCl, 25 NaHC03, 2 glucose, 3 KC1, 2 CaCl2, 1.5 NaH2P04, and 1 MgS04-7H20, which corrected to pH 7.4 with HCl. After incubation in the CG solution for 30 min, coverslips were transferred to carbogenated normal Krebs at 29° C.
Coverslips were transferred to a recording chamber on a fixed stage Zeiss Axioskop2 microscope equipped with a Perkin Elmer Ultra-view/Yokogawa C10 spinning disk laser confocal illuminator. Cells were illuminated with the 488 nm laser; CG-calcium fluorescence signals were collected at 509 nm. Cells were visualized with a X40 water immersion objective. Images were collected with a Hammamatsu Ocra-ER charge-coupled device camera. The confocal system, including image collection, was controlled by Perkin-Elmer Improvision software.
Cells on coverslips were constantly perfused with normal Krebs solution at 29° C. at a rate of 3 ml/min. After 10 min, the perfusion solution was switched to one containing 12 mM glucose and proportionally less sodium chloride to maintain osmolality. The 12 mM glucose challenge was applied for 5 min, followed by a 5 min washout period. Images of CG-labeled cells were collected continuously during the challenge period at a rate of 20/min, with each frame taking 1 s. Images were collected as TIFF stacks and processed using Nikon Elements AR software. Individual cells in the field were designated as regions of interest (ROI), and their fluorescence signal over time was captured. Background fluorescence was subtracted from the fluorescence signal of individual ROIs. The relative changes in cytoplasmic calcium in the cells were expressed as changes in fluorescence [(AF/F) %], where F is the intensity of the baseline fluorescence signal before stimulation and AF is the difference between the peak fluorescence intensity and the baseline signal. Therefore, magnitude of response was normalized for each individual ROI.

832/13 cells [3] = assay: Nitric oxide by EPR spectroscopy with (MGD)2Fe2+ spin trap; settings: 1 ng/ml IL-1β 18 h
Experimental: The spin trap Af-methyl-d-glucamine dithiocarbamate-iron complex [(MGD)2-Fe^2+] was prepared fresh in each experiment by making stock solutions of 500 mM MGD and 100 mM Fe^2+ (from FeS04.7 H20) in ultrapure water under anaerobic conditions. A final concentration of 25 mM MGD and 5 mM Fe^2+ was introduced onto cells in culture using serum-free media with a 30-min incubation period. Supernatants were then collected for the measurements of the (MGD)2-iron-NO complex. All electron paramagnetic resonance (EPR) measurements were carried out in a quartz flat cell at room temperature. Samples were transferred directly into the flat cell, which was then placed into the cavity of a Bruker EMX Plus spectroscope. Typical instrumental conditions were as follows: 20 mW of microwave power, 5.0-G modulation amplitude, 1×10^5 gain, 0.163-s time constant, and 80-G scan range. Quantitation was carried out by measuring and comparing the first peak heights on the spectra.

Nkx6.1 = Nkx6.1 protein abundance, immunoblot of cytosolic and nuclear fractions; settings: 832/13 cells, IL-1β 4 h
Experimental: as §1

[4] = pretreated 18 h with IL-1β alone, 12 mM glucose

IL-1β: proinflammatory cytokine purchased from Thermo Fisher Scientific, used at 1 ng/ml
increase in nitrite accrual (832/13 cells [1]; 6 h): 5.5 fold
increase in nitrite (832/13 cells [1]; time not given, associated with 54% diminution in GSIS): 13 fold
amount of Pdx-1 protein (Pdx-1): unchanged
average response magnitude (change in fluorescence) (832/13 cells [2]; [4]): 20%
cells responding to the glucose challenge (832/13 cells [2]; [4]): 61%
reduction of responses relative to control group (832/13 cells [2]; pretreated with IL-1β alone): 39%
nitric oxide production in response to IL-1β (832/13 cells [3]): robust production of nitric oxide
decrease in Nkx6.1 abundance (Nkx6.1): 47%
